Measurements: patent US11564913B2, “Compositions and methods for treating cancer” (Children's Hospital Medical Center, priority 2019, dated 2023)

Columns and labels:
[1] = test system: active Cdc42 in p190-BCR-ABL Ba/F3 cells; experiment: Active GTPase pull-down (GST-PAK-GBD); format: cell-based, murine; conditions: 3 μM
Description: (§1) FIG. 13: IODVA1 decreases Rac activation and signaling. (A) Ba/F3 cells expressing p190-BCR-ABL1 were treated with IODVA1 (3 μM) as indicated and levels of active Rac (Rac-GTP) were assessed by pull-down using GST-PAK-GBD, followed by immunoblotting (upper panel) and densitometric quantification (lower panel). (B) Flow-cytometry analysis of pJNK, pS6, p4EBP, pPAK1, and pAKT of Ba/F3 cells expressing Mieg3 empty vector (light and dark blue) or p190-BCR-ABL1 (light and dark salmon) and treated with vehicle control or IODVA1 (3 μM) for 30 min. (C) Representative histogram data of the cell cycle analysis of Ba/F3 cells expressing p190-BCR-ABL and treated with vehicle control or IODVA1 (1, 3, and 10 μM) for 20 h. (D) Quantification of the average number of colonies of bone marrow wild-type (black) and Rac1^Δ/Δ+Rac2^−/− (red) p190-BCR-ABL1 leukemic cells treated with vehicle control or IODVA1 (IO1, 1 μM). ns—not significant, * p<0.05, ** p<0.01, *** p<0.001. (E) As in FIG. 13A, but cells were incubated for a fixed amount of time (1 h) at the indicated IODVA1 concentrations. (F) Ba/F3 cells expressing p190-BCR-ABL1 were treated with IODVA1 (3 μM) and lysed at the indicated times. Cell lysates were separated on SDS-PAGE and immunoblotted for pPAK(T423), pBAD(S136), and BAD. (G) Ba/F3 cells expressing p190-BCR-ABL1 were treated with IODVA1 (3 μM) and levels of active Cdc42 (Cdc42-GTP) and Rho (Rho-GTP) were assessed by pull-down at the indicated times using GST-PAK-GBD and GST-Rhotekin respectively, followed by immunoblotting (left panel) and densitometric quantification (right panel). (H) Morphology of GFP^+ leukemic colonies (left panel). […]
(§2) Having shown that IODVA1 prevents formation of F-actin suprastructures, such as lamellipodia and circular dorsal ruffles, within minutes of cell incubation (FIGS. 5A-5B and Gasilina et al., 2020) we focused on Rac. […] We thus tested if IODVA1 inhibits Rac activation and measured levels of Rac-GTP during treatment using PAK-GBD (GTPase-binding domain). […]

[2] = test system: active Rac (Rac-GTP) in p190-BCR-ABL Ba/F3 cells; experiment: Active GTPase pull-down (GST-PAK-GBD); format: cell-based, murine
Description: as §1, §2

OC1(c2ccccn2)N=C(Nc2nc3ccccc3[nH]2)N=C1c1ccccn1 (stereo not drawn) [IODVA1, (Z)-2-((1H-benzo[d]imidazol-2-yl)imino)-4,5-di(pyridin-2-yl)-2,5-dihydro-1H-imidazol-5-ol]
effect on active Cdc42 [1]: less effective | decrease in the levels of active Rac ([2]; 3 μM, 10-15 minutes post incubation): 70% | IC50 ([2]; Mus musculus, BaF3, 1 h, read-out: IC50, Rac activation): 1000 nM
